Data taken from patent EP0073960A1, “2-Arylhydrazino-2-imidazolines, their acyl derivatives, process for their preparation and their use in the control of endoparasites and ectoparasites” (BAYER AG, priority 1981, dated 1983).

Tested on: Boophilus microplus, Biarra-Stamm
Assay: In vitro tick test: inhibition of egg laying after dipping adult engorged female ticks
Conditions: Rhipicephalus microplus, 480 h, resistant strain, ticks dipped for 1 minute, read after 20 days, read-out: 50 % Hemmung bei einer Wirkstoff-konzentration in ppm a.i.von
Text: Lösungsmittel: 35 Gewichtsteile Ethylenglykolmonomethylether 35 Gewichtsteile Nonylphenolpolyglykolether
Zwecks Herstellung einer geeigneten Formulierung vermischt man drei Gewichtsteile Wirkstoff mit sieben Teilen des oben angegebenen Lösungsmittel-Emulgator-Gemisches und verdünnt das so erhaltene Emulsionskonzentrat mit Wasser auf die jeweils gewünschte Konzentration.
In diese Wirkstoffzubereitungen werden adulte, vollgesogene Zeckenweibchen der Art Boophilus microplus (resistent) eine Minute lang getaucht. Nach dem Tauchen von je 10 weiblichen Exemplaren überführt man diese in Petrischalen, deren Boden mit einer entsprechend großen Filterscheibe belegt ist.
Nach 20 Tagen wird die Wirksamkeit der Wirkstoffzubereitung bestimmt durch Ermittlung der Hemmung der Eiablage gegenüber unbehandelten Kontrollzecken. Die Wirkung drückt man in Prozent aus, wobei 100 % bedeutet, daß keine Eier mehr abgelegt wurden und 0 % besagt, daß die Zecken Eier in normaler Menge ablegten.
Untersuchter Wirkstoff, geprüfte Konzentration, getestete Parasiten und erhaltene Befunde gehen aus der folgenden Tabelle 1 hervor.

IC50: > 5000 µg/mL
Compound: Cc1cc(Cl)ccc1NC(=S)N(C)C [Chloromethiuron]
